Laboratory results published in US20100021903A1, “Use of Genetic Determinants in Cardiovascular Risk Assessment” (priority 2006, published 2010).

Columns and labels:
[1] = test system: hypertensive patients with coronary artery disease; assay: Nested case-control study within INVEST-GENES: primary outcome, logistic regression; details: for SNP effect in arm (OR, 95% CI), Death / SNP effect in arm (OR, 95% CI), MI / SNP effect in arm (OR, 95% CI), Stroke: within treatment arm; for Total Number of Events: primary outcome; for OR, effect of CACNB2 rs2357928 genotype on the primary outcome, by treatment: within CCB-treated or β-blocker-treated patients; for OR, ALOX5 promoter polymorphism variant carriers, adverse cardiovascular outcomes, By Drug Therapy: within patients on the named drug
Excerpt: The model contained the following baseline covariates used for primary INVEST analyses: age, sex, race/ethnicity, body mass index, smoking, INVEST treatment strategy, previous myocardial infarction, previous stroke, heart failure, diabetes, renal insufficiency, baseline systolic blood pressure, diuretic use, and ACE inhibitor use, plus codon 65 and 110 genotype, and the interaction term between genotype and strategy assignment.
Relationships between single nucleotide polymorphisms (SNP) and haplotypes of arachidonate 5-lipoxygenase pathway genes and cardiovascular events were tested. […] A haplotype of ALOX5AP and SNPs was genotyped in both LTC4S and LTA4H, encoding 5-lipoxygenase activating protein, leukotriene C4 synthase and leukotriene A4 hydrolase respectively. The effects of these variants on the primary outcome using the X^2 test and logistic regression was analyzed.
Pharmacogenetic relationships were tested between a polymorphism of the LTA4H gene which encodes leukotriene A4 hydrolase and cardiovascular events based on drug-treatment. […] The LTA4H SNP rs2660845 were genotyped and analyzed the effect and interaction of this variant with antihypertensive drug treatment on the primary outcome with the X^2 test and logistic regression.
There was minimal linkage disequilibrium in CACNA1C and CACNB2. 8 SNPs in CACNA1C were examined in the case-control group.

[2] = test system: hypertensive patients with coronary artery disease; assay: Blood pressure response to atenolol and number of antihypertensive drugs needed to reach BP control by ADRB1/ADRB2 genotype
[3] = test system: hypertensive patients with coronary artery disease; assay: INVEST-GENES cohort: primary and secondary cardiovascular outcomes (death, nonfatal MI, nonfatal stroke), Cox regression; details: for Incidence, Nonfatal MI / Incidence, Nonfatal Stroke / Incidence, Primary Outcome / Incidence, All-cause Mortality: crude incidence; for HR (95% CI) Atenolol vs. Verapamil, Nonfatal MI / HR (95% CI) Atenolol vs. Verapamil, Nonfatal Stroke / HR (95% CI) Atenolol vs. Verapamil, Primary Outcome: reduced model; for HR, KCNMB1 codon 110 (Leu110) variant allele on primary outcome, separately by treatment strategy: within patients randomized to the named drug
hypertensive subjects = details: Nguyen et al. 2000; cited from earlier work
[4] = LTA4H rs2660845 G-carriers (n = 466)
[5] = Patients on Atenolol (N = 2,830)
[6] = Patients on Atenolol, number of patients
[7] = primary outcome, 0 GGC (ADRB2 46G-79G-523C) copies

Molecule: CC(C)NCC(O)COc1ccc(CC(N)=O)cc1 (stereo not drawn) [atenolol]
- RR: BB vs CCB by genotype, Death ([1]; CACNA1C rs1051375): 0.50
- RR: BB vs CCB by genotype, MI ([1]; CACNA1C rs1051375): 0.39
- RR: BB vs CCB by genotype, Stroke ([1]; CACNA1C rs1051375): 0.38
- SNP effect in arm (OR, 95% CI), Death ([1]; CACNA1C rs1051375): 0.64 (0.37-1.12)
- SNP effect in arm (OR, 95% CI), MI ([1]; CACNA1C rs1051375): 0.38 (0.22-0.68)
- SNP effect in arm (OR, 95% CI), Stroke ([1]; CACNA1C rs10848683): 0.706 (0.375, 1.329)
- Total Number of Events ([1]; All subjects (n = 935)): 113
- Total Number of Events ([1]; LTA4H AA (n = 469)): 41
- Total Number of Events [1, 4]: 63
- OR, effect of CACNB2 rs2357928 genotype on the primary outcome, by treatment [1]: 0.50
- OR, ALOX5 promoter polymorphism variant carriers, adverse cardiovascular outcomes, By Drug Therapy [1]: 1.577
- covariate-adjusted systolic blood pressure reduction ([2]; 1 copy GEC, 6 weeks): −7.9 mmHg
- covariate-adjusted systolic blood pressure reduction ([2]; 2 copies GEC, 6 weeks): −6.7 mmHg
- patients who achieved sustained blood pressure control ([2]; 619 blood pressure response study patients): 79.8%
- mean systolic blood pressure after 6 weeks of treatment ([2]; 619 patients whose BP change could be attributed to atenolol, mean±SD): 139.7±18.3 mmHg
- mean reduction in diastolic blood pressure ([2]; 619 patients, 6 weeks): −6.2±10.3 mmHg
- mean reduction in systolic blood pressure ([2]; 619 patients, 6 weeks): −11.1±19.5 mmHg
- mean diastolic blood pressure after 6 weeks of treatment ([2]; 619 patients, mean±SD): 80.4±9.9 mmHg
- patients who achieved sustained blood pressure control ([2]; 2,772 patients with complete genotype data, <140/90 mmHg): 75.0%
- Covariate-Adjusted Decline in blood pressure, Diastolic ([2]; ADRB2 C523A AA): −7.4 mmHg
- Covariate-Adjusted Decline in blood pressure, Systolic ([2]; ADRB2 C523A AA): −15.2 mmHg
- Covariate-Adjusted Decline in blood pressure, Diastolic ([2]; ADRB2 C523A CA): −4.5 mmHg
- Covariate-Adjusted Decline in blood pressure, Systolic ([2]; ADRB2 C523A CA): −9.9 mmHg
- Covariate-Adjusted Decline in blood pressure, Diastolic ([2]; ADRB2 C523A CC): −5.1 mmHg
- Covariate-Adjusted Decline in blood pressure, Systolic ([2]; ADRB2 C523A CC): −8.2 mmHg
- Covariate-Adjusted Decline in blood pressure, Diastolic ([2]; ADRB2 Gln27Glu GlnGln): −5.9 mmHg
- Covariate-Adjusted Decline in blood pressure, Systolic ([2]; ADRB2 Gln27Glu GlnGln): −11.2 mmHg
- Covariate-Adjusted Decline in blood pressure, Diastolic ([2]; ADRB2 Gln27Glu GlnGlu): −4.8 mmHg
- Covariate-Adjusted Decline in blood pressure, Systolic ([2]; ADRB2 Gln27Glu GlnGlu): −8.8 mmHg
- Covariate-Adjusted Decline in blood pressure, Diastolic ([2]; ADRB2 Gln27Glu GluGlu): −3.4 mmHg
- Covariate-Adjusted Decline in blood pressure, Systolic ([2]; ADRB2 Gln27Glu GluGlu): −6.0 mmHg
- Covariate-Adjusted Decline in blood pressure, Diastolic ([2]; ADRB2 Gly16Arg ArgArg): −4.9 mmHg
- Covariate-Adjusted Decline in blood pressure, Systolic ([2]; ADRB2 Gly16Arg ArgArg): −8.0 mmHg
- Covariate-Adjusted Decline in blood pressure, Diastolic ([2]; ADRB2 Gly16Arg GlyArg): −5.9 mmHg
- Covariate-Adjusted Decline in blood pressure, Systolic ([2]; ADRB2 Gly16Arg GlyArg): −10.9 mmHg
- Covariate-Adjusted Decline in blood pressure, Diastolic ([2]; ADRB2 Gly16Arg GlyGly): −4.2 mmHg
- Covariate-Adjusted Decline in blood pressure, Systolic ([2]; ADRB2 Gly16Arg GlyGly): −9.0 mmHg
- DBP at 12 months, mean (SD) [2, 5]: 78.3 mmHg
- DBP at 24 months, mean (SD) [2, 5]: 77.7 mmHg
- SBP at 12 months, mean (SD) [2, 5]: 134.0 mmHg
- SBP at 24 months, mean (SD) [2, 5]: 132.3 mmHg
- Percent of visits with blood pressure in control, mean (SD) ([2]; Patients on Atenolol (N = 2,830), atenolol-based strategy, SBP < 140 and DBP < 90 mmHg): 59.4
- BP in control at 12 months, No. [2, 6]: 1725
- BP in control at 24 months, No. [2, 6]: 1695
- BP in control at 12 months, (%) ([2]; Patients on Atenolol, percentage of patients at risk at 12 months): (66.0) %
- BP in control at 24 months, (%) ([2]; Patients on Atenolol, percentage of patients at risk at 24 months): (69.5) %
- Association of ADRB1 haplotypes with blood pressure response to atenolol ([2]; p values >0.2): not significantly associated
- Incidence, Nonfatal MI ([3]; 0 copies ADRB2 46G-79G-523C): 3.5 per 1000 patient-years
- Incidence, Nonfatal Stroke ([3]; 0 copies ADRB2 46G-79G-523C): 4.2 per 1000 patient-years
- Incidence, Primary Outcome ([3]; 0 copies ADRB2 46G-79G-523C): 10.8 per 1000 patient-years
- HR (95% CI) Atenolol vs. Verapamil, Nonfatal MI ([3]; 0 copies ADRB2 46G-79G-523C): 0.60 (0.31-1.16)
- HR (95% CI) Atenolol vs. Verapamil, Nonfatal Stroke ([3]; 0 copies ADRB2 46G-79G-523C): 0.85 (0.44-1.62)
- HR (95% CI) Atenolol vs. Verapamil, Primary Outcome ([3]; 0 copies ADRB2 46G-79G-523C): 0.60 (0.41-0.87)
- Incidence, Nonfatal MI ([3]; 1 copy ADRB2 46G-79G-523C): 5.8 per 1000 patient-years
- Incidence, Nonfatal Stroke ([3]; 1 copy ADRB2 46G-79G-523C): 4.8 per 1000 patient-years
- HR (95% CI) Atenolol vs. Verapamil, Nonfatal MI ([3]; 1 copy ADRB2 46G-79G-523C): 1.94 (0.89-4.20)
- HR (95% CI) Atenolol vs. Verapamil, Nonfatal Stroke ([3]; 1 copy ADRB2 46G-79G-523C): 1.01 (0.50-2.05)
- HR (95% CI) Atenolol vs. Verapamil, Primary Outcome ([3]; 1 copy ADRB2 46G-79G-523C): 1.03 (0.69-1.54)
- Incidence, Nonfatal MI ([3]; 2 copies ADRB2 46G-79G-523C): 9.1 per 1000 patient-years
- Incidence, Nonfatal Stroke ([3]; 2 copies ADRB2 46G-79G-523C): 5.1 per 1000 patient-years
- Incidence, Primary Outcome ([3]; 2 copies ADRB2 46G-79G-523C): 22.3 per 1000 patient-years
- HR (95% CI) Atenolol vs. Verapamil, Nonfatal MI ([3]; 2 copies ADRB2 46G-79G-523C): 1.53 (0.51-4.57)
- HR (95% CI) Atenolol vs. Verapamil, Nonfatal Stroke ([3]; 2 copies ADRB2 46G-79G-523C): 0.79 (0.22-2.81)
- HR (95% CI) Atenolol vs. Verapamil, Primary Outcome ([3]; 2 copies ADRB2 46G-79G-523C): 1.35 (0.68-2.67)
- HR, primary outcome, atenolol vs. verapamil SR ([3]; carriers (1 or 2 copies) of ADRB2 46G-79G-523C haplotype): 1.10
- HR, primary outcome, atenolol vs. verapamil SR ([3]; non-carriers of ADRB2 46G-79G-523C haplotype): 0.59
- Events/1000 Patient-Years [3, 7]: 10.6 Events/1000 Patient-Years
- Events/1000 Patient-Years ([3]; primary outcome, 1 GGC copy): 15.1 Events/1000 Patient-Years
- Events/1000 Patient-Years ([3]; primary outcome, 2 GGC copies): 23.5 Events/1000 Patient-Years
- Events/1000 Patient-Years ([3]; primary outcome, All Patients): 13.6 Events/1000 Patient-Years
- HR, KCNMB1 codon 110 (Leu110) variant allele on primary outcome, separately by treatment strategy [3]: 0.84

Molecule: NS(=O)(=O)c1cc2c(cc1Cl)NCNS2(=O)=O [diuretics, hydrochlorothiazide]
- HR, interaction between ADD1 carrier status and diuretics ([3]; adjusted Cox PH model, primary outcome): 1.02
- Time to primary outcome event, users vs non-users of diuretics ([3]; regardless of ADD1 variant carrier status, Kaplan Meier): not different

Molecule: COc1ccc(CCN(C)CCCC(C#N)(c2ccc(OC)c(OC)c2)C(C)C)cc1OC (stereo not drawn) [verapamil SR, verapamil]
- Total Number of Events ([1]; All subjects (n = 935)): 137
- Total Number of Events ([1]; LTA4H AA (n = 469)): 68
- Total Number of Events [1, 4]: 60
- OR, ALOX5 promoter polymorphism variant carriers, adverse cardiovascular outcomes, By Drug Therapy [1]: 1.964
- systolic blood pressure response, average decrease (hypertensive subjects): 12 mmHg
- Incidence, All-cause Mortality ([3]; 0 copies ADRB2 46G-79G-523C): 7.3 per 1000 patient-years
- Incidence, Nonfatal MI ([3]; 0 copies ADRB2 46G-79G-523C): 5.9 per 1000 patient-years
- Incidence, Nonfatal Stroke ([3]; 0 copies ADRB2 46G-79G-523C): 5.1 per 1000 patient-years
- Incidence, Primary Outcome ([3]; 0 copies ADRB2 46G-79G-523C): 18.3 per 1000 patient-years
- Incidence, All-cause Mortality ([3]; 1 copy ADRB2 46G-79G-523C): 7.0 per 1000 patient-years
- Incidence, Nonfatal MI ([3]; 1 copy ADRB2 46G-79G-523C): 2.9 per 1000 patient-years
- Incidence, Nonfatal Stroke ([3]; 1 copy ADRB2 46G-79G-523C): 4.7 per 1000 patient-years
- Incidence, Primary Outcome ([3]; 1 copy ADRB2 46G-79G-523C): 14.5 per 1000 patient-years
- Incidence, All-cause Mortality ([3]; 2 copies ADRB2 46G-79G-523C): 4.2 per 1000 patient-years
- Incidence, Nonfatal MI ([3]; 2 copies ADRB2 46G-79G-523C): 6.3 per 1000 patient-years
- Incidence, Nonfatal Stroke ([3]; 2 copies ADRB2 46G-79G-523C): 6.3 per 1000 patient-years
- Incidence, Primary Outcome ([3]; 2 copies ADRB2 46G-79G-523C): 17.0 per 1000 patient-years
- Modification of the adverse effect of ADRB2 46G-79C-523C haplotype on primary outcome ([3]; Example 4): Neither atenolol nor verapamil SR modified the adverse effect of this haplotype
- Systolic and diastolic blood pressure control ([3]; patients treated with verapamil vs atenolol, FIG. 23): did not differ
- Events/1000 Patient-Years [3, 7]: 18.0 Events/1000 Patient-Years
- Events/1000 Patient-Years ([3]; primary outcome, 1 GGC copy): 14.4 Events/1000 Patient-Years
- Events/1000 Patient-Years ([3]; primary outcome, 2 GGC copies): 17.1 Events/1000 Patient-Years
- Events/1000 Patient-Years ([3]; primary outcome, All Patients): 16.4 Events/1000 Patient-Years
- HR, KCNMB1 codon 110 (Leu110) variant allele on primary outcome, separately by treatment strategy [3]: 0.55
- HRadj, ADRB1 49S-389R haplotype on mortality, by treatment ([3]; within patients treated with the named drug): 8.00

Molecule: verapamil [verapamil SR]
- SNP effect in arm (OR, 95% CI), Death ([1]; CACNA1C rs1051375): 1.28 (0.82, 2.0)
- SNP effect in arm (OR, 95% CI), MI ([1]; CACNA1C rs1051375): 0.97 (0.61-1.53)
- SNP effect in arm (OR, 95% CI), Stroke ([1]; CACNA1C rs1051375): 1.83 (1.13-2.97)
- SNP effect in arm (OR, 95% CI), Death ([1]; CACNA1C rs10848683): 0.659 (0.365, 1.192)
- SNP effect in arm (OR, 95% CI), MI ([1]; CACNA1C rs10848683): 0.733 (0.415, 1.294)
- SNP effect in arm (OR, 95% CI), Stroke ([1]; CACNA1C rs10848683): 1.340 (0.767, 2.341)
- OR, effect of CACNB2 rs2357928 genotype on the primary outcome, by treatment [1]: 1.00
